# A melting point compilation (Tetko et al.; mined from patent text by program, amines drawn as free bases though some values may be those of a salt)
row,Structure (SMILES),melting point [°C]
1,COC(=O)C1=C(C)NC(C)=C(C(=O)OCC(C)(C)CN(C)C)C1c1cccc([N+](=O)[O-])c1Cl (stereo not drawn),167 to 169
2,O=C(Cc1ccc(F)cc1)c1c(O)c2cccnc2n(-c2cccc(OC(F)(F)F)c2)c1=O,137 to 138
3,CC(C)(CCP(=O)(O)O)c1ccc(O)cc1,192 to 195
4,CC(SC1COC(c2ccc(C(=O)Nc3ccc(CC#N)cc3)cc2)OC1)C(O)(Cn1cncn1)c1ccc(F)cc1F (stereo not drawn),188
5,Cc1c(S(=O)(=O)Nc2ccc3[nH]cc(CCN(C)C)c3c2)sc2ccc(Cl)cc12,226 to 227
6,O=C1CCCN1CCc1c2ccccc2n2c1[nH]c(=O)c1ccccc12,154 to 155
7,O=C(NC1CCC2(CC1)CSC1=C(O2)c2ccccc2C(=O)C1=O)Oc1cccc(C(F)(F)F)c1 (stereo not drawn),198 to 199
8,CC(=O)SCC(Cc1ccccc1)C(=O)Nc1cc2ccccc2cc1C(=O)O (stereo not drawn),138 to 141
9,NC(=O)Cc1c(CCN(Cc2ccccc2)Cc2ccccc2)[nH]c2ccccc12,135 to 136
10,Cc1oc(-c2ccco2)nc1COc1ccc(COc2nn(C)cc2CC(=O)O)cn1,155 to 156
11,Cc1c2c3c(ccc2nn1C)CCC3=CC#N,200 to 203
12,CCOc1cc2c(cc1OC)OC(C)(C)CC2=O,86 to 87
13,C=C(C)OC(=O)N1c2nc(C)ccc2NC(=S)C1C (racemic),120 to 121
14,CCOC(=O)Cn1c2c([nH]c(=O)c1=O)CCC1=C2C=C([N+](=O)[O-])CC1,217 to 219
15,COC(=O)C(CCSC)N(C(=O)OC(C)(C)C)C(=O)c1ccc(N)c(C)c1 (stereo not drawn),163 to 165
16,COc1ccc(N2CCN(c3c(C)c(C)c4c(c3C)CC(C)(CN3CCC(O)CC3)O4)CC2)cc1 (stereo not drawn),139 to 143
17,Cc1ccc(-n2cccc2C=O)c(Cl)c1,111 to 112
18,O=C1NCCN(N=Cc2ccco2)C1=O,193 to 197
19,CN(c1ccoc1)c1n[nH]c2ncnc(Nc3cccc(Cl)c3)c12,207 to 209
20,CC(O)CN(C)c1nnc2c3ccc(Cl)cc3c(-c3ccccc3)nn12 (stereo not drawn),236 to 238
21,CSc1nc(C(F)(F)F)c(Br)c(=O)[nH]1,215 to 216
22,O=c1[nH]c2ccc(F)c(F)c2c(=O)o1,> 240
23,CNc1nc(C)c(-c2nc3ccccc3c(=O)n2-c2ccccc2Cl)s1,214 to 215
24,Cc1cc(-c2nc3cccnn3c2-c2ccnc(NC(=O)c3ccccc3)c2)ccc1F,189 to 190
25,Cn1cncc1C(O)c1ccc2[nH]c(=O)cc(-c3cccc(Cl)c3)c2c1 (stereo not drawn),186

row,Structure (SMILES),melting point [°C]
1,CC(C)(C)C1=CC(C(F)(F)F)=CCC1(O)C(C)(C)C (stereo not drawn),78 to 80
2,CC(=O)O[C@H]1c2cc(F)ccc2Cc2ccccc2[C@H]1C[C@@H]1COC(C)(C)O1,147 to 149
3,O=C(c1ccc(-c2cnc3c(c2)N(Cc2cc(F)ccc2F)CCN3)cc1)N1CCC(N2CCCC2)CC1,202 to 204
4,CCOC(=O)Cc1c(C(=O)c2ccc(Cl)cc2)[nH]c2cc(Cl)ccc12,186 to 188
5,O=C(O)C1CCc2c(c3ccccc3n2C(=O)c2cccc(C(F)(F)F)c2)C1 (stereo not drawn),173 to 175
6,CCCn1cc(Cc2ccc(C(=O)NS(=O)(=O)c3ccccc3C)cc2OC)c2cc(CCC(C)C(=O)N(C)C)ccc21 (stereo not drawn),90 to 93
7,CCC1(c2cn(-c3c(Cl)cc(C(F)(F)F)cc3Cl)nc2C#N)CC1,118 to 119
8,CSc1cnc2cc(-c3ccccc3Cl)sc2c1O,270 to 273
9,COC(=O)NC=Cc1ccc(OCC(O)CNC(C)CC(N)=O)cc1 (stereo not drawn),109 to 111
10,COc1ccccc1-c1ccc(C(=O)N2Cc3ccc(C(=O)O)n3Cc3ccccc32)cc1C,133 to 135
11,CCCCCC1CCC(C2CCC(CC(=O)CC)CC2)CC1 (stereo not drawn),107
12,O=C(c1ccc(O)cc1)c1cccc2[nH]ccc12,177
13,O=C(O)C1Cc2c([nH]c3ccccc23)CN1C(=S)SC1CCCCC1 (stereo not drawn),150 to 151
14,O=C1C(c2ccc(-c3ccccc3)cc2)n2cncc2CN1Cc1ccc(F)cc1 (stereo not drawn),189 to 190
15,CCOC(=O)C1SCCN1C(=S)Nc1cc(Cl)cc(Cl)c1 (stereo not drawn),170 to 172
16,CCCCc1oc2ccccc2c1C(=O)NCc1ccc2cc(OCC(=O)OC)ccc2c1,142 to 143
17,CNC(=O)Oc1ccc(N=C(C)c2ccccc2O)c(C)c1,133 to 138
18,CC1=C(c2ccccc2)C(=O)N(C(C)(C)c2cc(Cl)c(F)c(Cl)c2)C1,164 to 167
19,CCOc1ccc(-c2nc3n(c2-c2ccc(OCC)cc2)CCC3)cc1,135 to 138
20,CCCCCCCCCCCCCCc1c[nH]c(C(=O)OC)c1,80 to 82
21,COc1ccc(Nc2ccncc2)c(C(=O)N2CCCCC2)c1,176 to 178
22,CC(=NO)C1=CCN(C)CC1,166 to 168
23,COc1ccc(C(=O)Nc2ccc(C(=O)N3CCCC3)cc2)cc1C12CC3CC(CC(C3)C1)C2,239 to 242
24,COC(=O)C(Oc1cc(OCc2ccc3ncoc3c2)ccc1C#N)c1ccccc1C (racemic),157 to 159
25,CC(C=CC=C(C)C=CC1=C(C)C(=O)CCC1(C)C)=CC=CC=C(C)C=CC=C(C)C=CC1=C(C)C(=O)CCC1(C)C,205 to 207

row,Structure (SMILES),melting point [°C]
1,CCC(=O)Nc1ccc(C(=O)[C@H]2C[C@H]2C(=O)O)cc1 (relative stereo),182 to 183
2,COC1(c2cccc(OCc3ccc(-n4ccnc4C)cc3)c2)CCOCC1,136 to 137
3,CCCc1c(OCCCOc2cccc(C(=O)NCCCCc3cccnc3)c2)ccc(C(C)=O)c1O,84 to 86
4,COC(=O)c1cn2c(C(F)(F)F)nnc2c2ccccc12,170
5,CC(C)(C)S(=O)(=O)NCc1cc(-c2ccc(Cl)c(Cl)c2)n(Cc2ccc(Cl)c(Cl)c2)n1,127
6,COc1cc(NC(C)=O)c(Cl)cc1-c1nn(-c2ccc(C(F)(F)F)cc2)c(=O)o1,235 to 236
7,COc1cc(Br)nc2[nH]cc(-c3ccnc(N)n3)c12,> 210
8,CCCNC(=O)C1CC(=O)N(Cc2ccccc2)C1 (stereo not drawn),86 to 87
9,Cc1cc2nc(N)[nH]c(=O)c2[nH]1,252 to 254
10,CCOC(OCC)C(N)=O,47 to 51
11,COc1ccc(C2CCN(C(N)=O)CC2)cc1OC1CCCC1,149 to 150
12,CN1CCN(c2c(Cl)cc3c(=O)c(C(=O)O)cn(C4CC4)c3c2Cl)CC1,> 300
13,Fc1cc(C(Cl)(Cl)Cl)c(Cl)c(C(Cl)Cl)c1Cl,74 to 76
14,CN1C(=O)N2[C@H](c3cccc(O)c3)c3[nH]c4ccc(Cl)cc4c3C[C@@]2(C)C1=O (racemic),248 to 250
15,c1ccc(-c2nc(COc3ccc(CCCCn4ccnc4)cc3)cs2)cc1,93 to 94
16,CCCCCC(C)N(Cc1ccnc2ccccc12)C(Nc1ccc(OC)cc1OC)=C1C(=O)OC(C)(C)OC1=O (stereo not drawn),197 to 202
17,O=c1[nH]c2cccc(OCCN3CCc4ccccc4C3)c2[nH]1,173 to 174
18,O=C(Nc1cccc(Cl)c1)O[C@H]1COC(c2ccccc2)=N[C@@H]1c1ccccc1 (racemic),160
19,CCOC(=O)CC(c1cccnc1)N1CCN(CCCOc2ccc(C#N)cc2)C(=O)C1=O (stereo not drawn),110 to 112
20,O=C(O)c1cnc2c3cccc([N+](=O)[O-])c3ccn2c1=O,> 300
21,COc1cc(-c2cnc3[nH]cc(C(=O)C4(C)CCC(O)CC4)c3n2)cc(OC)c1OC (stereo not drawn),242 to 244
22,O=C(O)c1cc2c(c(C(=O)O)c1)NCCCC2,287 to 288
23,O=C(O)c1cc(OCCCc2ccccc2)cc(OCCCc2ccccc2)c1,107 to 109
24,CC(C)(C)c1ccc(C(=O)Nc2cn3cc(-c4cnc[nH]4)ccc3n2)cc1,297 to 298
25,CC(C)CNC(=O)C=Cc1ccc(OCc2ccccc2)c([N+](=O)[O-])c1,166 to 167

row,Structure (SMILES),melting point [°C]
1,COc1ccc2c(c1)CCC1=C2CCC2(CC(C)C)C(=O)CC=C12 (stereo not drawn),57 to 60
2,CCC(C)(C)c1ccc(Oc2cccc(C#N)c2C#N)c(C(C)(C)CC)c1,143 to 144
3,N#Cc1ccc(-c2ccc(-c3ccc(C#N)cn3)o2)nc1,311 to 312
4,COc1ccc(N2CCN(c3ccc(OC)nc3-c3ccc(OCC(F)(F)F)cc3)CC2)cc1,104 to 107
5,C=C(CC(C)C)C(=O)NCCCCCC(N)=O,76 to 82
6,OCC1CC(n2c(Cl)nc3cc(Cl)c(Cl)cc32)C(O)C1O (stereo not drawn),206 to 210
7,CC(=O)Nc1nc2ccc(S(=O)(=O)n3c(CCCC(=O)O)cc4nc(Cl)ccc43)cc2s1,270
8,CC(C)CN1CCC2(CC1)CSC1=C(O2)c2ccccc2C(=O)C1=O,158 to 161
9,CCCN1C(=O)C2(c3ccc(N)cc3)CC(c3ccc(N)cc3)(C2)C1=O,149 to 150
10,CCOC(=O)c1sc(N2CCN(CC3CC3(F)F)C2=O)nc1C (stereo not drawn),146 to 148
11,Cc1n[nH]c(NCCCCOc2cccc(CN3CCCCC3)c2)n1,138 to 139
12,CC(=O)C(=NNc1ccccc1)C(=O)N(C)C,131 to 133
13,CC(=O)OCCOc1cnc(-c2ncc([N+](=O)[O-])n2C)nc1,148 to 150
14,CCCCc1ccc(-c2ccc(CCc3ccc(Cl)cc3)cc2)c(F)c1,49
15,CNC(=O)NC1CCC(=O)c2ccccc21 (stereo not drawn),220 to 223
16,CC1(C)CCC(C)(C)c2cc(-c3nnc(-c4ccc(C(N)=O)cc4)o3)ccc21,272 to 274
17,CCCCNC(=O)CC(F)=C(F)F,34 to 36
18,CC(=O)Nc1c(C(=O)c2ccco2)[nH]c2cc(Cl)ccc12,227 to 228
19,Cc1[nH]cnc1CCCCNC(=N)N,152 to 154
20,CC12CCC(C(=O)O)=CC1=CCC1C2CCC2(C)C(C(=O)c3ccc(O)cc3)CCC12 (stereo not drawn),295
21,CC(O)c1ccc(C(C)Oc2cncc(C(=O)Nc3ccc(C#N)cc3)c2)cc1 (stereo not drawn),179 to 181
22,Nc1nc2ccccc2c2c1ncn2CCCCNC(=O)c1cccc(Oc2ccccc2)c1,105 to 107
23,CNS(=O)(=O)c1cc(C(=O)NCC2CCCN2CC2CC2)c(OC)cc1N (stereo not drawn),173 to 174
